In PubChem BioAssay (NCI):
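In this assay, cells in 96-well plates receive the compound at five concentrations for 48 hours. Endpoints are linearly interpolated between the surrounding concentrations. At the GI50, growth is halved. TGI denotes the concentration required for complete inhibition of growth.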

Legend:
Assay in all cases: NCI anticancer screen, dose series, 48 h
MDA-MB-468 breast = tested on: MDA-MB-468 breast
SK-MEL-5 melanoma = tested on: SK-MEL-5 melanoma
U251 CNS = tested on: U251 CNS
K-562 leukemia = tested on: K-562 leukemia
SNB-19 CNS = tested on: SNB-19 CNS
KM12 colon = tested on: KM12 colon
SR leukemia = tested on: SR leukemia
ACHN renal = tested on: ACHN renal
OVCAR-5 ovarian = tested on: OVCAR-5 ovarian
HCC-2998 colon = tested on: HCC-2998 colon
SK-MEL-2 melanoma = tested on: SK-MEL-2 melanoma
COLO 205 colon = tested on: COLO 205 colon
MALME-3M melanoma = tested on: MALME-3M melanoma
OVCAR-3 ovarian = tested on: OVCAR-3 ovarian
BT-549 breast = tested on: BT-549 breast
M14 melanoma = tested on: M14 melanoma
NCI-H460 lung = tested on: NCI-H460 lung
SF-268 CNS = tested on: SF-268 CNS
SK-MEL-28 melanoma = tested on: SK-MEL-28 melanoma
OVCAR-4 ovarian = tested on: OVCAR-4 ovarian
UACC-62 melanoma = tested on: UACC-62 melanoma
CAKI-1 renal = tested on: CAKI-1 renal
SW-620 colon = tested on: SW-620 colon
MDA-MB-231 breast = tested on: MDA-MB-231 breast
OVCAR-8 ovarian = tested on: OVCAR-8 ovarian
CCRF-CEM leukemia = tested on: CCRF-CEM leukemia
HCT-116 colon = tested on: HCT-116 colon
PC-3 prostate = tested on: PC-3 prostate

## COc1cc(C2CC(c3ccc(C(F)(F)F)cc3)=Nc3c(N)nc(N)nc3N2)ccc1Oc1nc(Nc2ccc(F)cc2)nc(N(C)C)n1 (stereo not given)
MDA-MB-468 breast
  GI50: 2.4 µM
  TGI: 7.79 µM
SK-MEL-5 melanoma
  GI50: 3.32 µM
  TGI: 12.8 µM
U251 CNS
  GI50: 4.63 µM
  TGI: 21.1 µM
K-562 leukemia
  GI50: 1.85 µM
  TGI: > 100 µM
SNB-19 CNS
  GI50: 9.14 µM
  TGI: > 100 µM
KM12 colon
  GI50: 3.05 µM
  TGI: 11.7 µM
SR leukemia
  GI50: 1.89 µM
  TGI: 5.9 µM
ACHN renal
  GI50: 6.05 µM
  TGI: > 100 µM
OVCAR-5 ovarian
  GI50: 35.2 µM
  TGI: > 100 µM
HCC-2998 colon
  GI50: 2.26 µM
  TGI: 5.69 µM
SK-MEL-2 melanoma
  GI50: 2.94 µM
  TGI: 11.7 µM
COLO 205 colon
  GI50: 3.09 µM
  TGI: 14.7 µM
MALME-3M melanoma
  GI50: 2.84 µM
  TGI: 14.2 µM
OVCAR-3 ovarian
  GI50: 5.46 µM
  TGI: 21.9 µM
BT-549 breast
  GI50: 4.41 µM
  TGI: 21 µM
M14 melanoma
  GI50: 4.41 µM
  TGI: 50.7 µM
NCI-H460 lung
  GI50: 2.61 µM
  TGI: 7.19 µM
SF-268 CNS
  GI50: 6.14 µM
  TGI: > 100 µM
SK-MEL-28 melanoma
  GI50: 28.1 µM
  TGI: > 100 µM
OVCAR-4 ovarian
  GI50: 3.92 µM
  TGI: 33.1 µM
UACC-62 melanoma
  GI50: 13.1 µM
  TGI: 31.2 µM
CAKI-1 renal
  GI50: 1.65 µM
  TGI: > 100 µM
SW-620 colon
  GI50: 5.59 µM
  TGI: 75.2 µM
MDA-MB-231 breast
  GI50: 2.29 µM
  TGI: 8.39 µM
OVCAR-8 ovarian
  GI50: 5.48 µM
  TGI: > 100 µM
CCRF-CEM leukemia
  GI50: 3.32 µM
  TGI: > 100 µM
HCT-116 colon
  GI50: 1.76 µM
  TGI: 3.65 µM
PC-3 prostate
  GI50: 3.2 µM
